Publication PMC3034309 (European journal of pharmacology, 2011)

Legend:
[1] = biological target: human cannabinoid CB1 receptors (Homo sapiens, UniProt P21554); test: Inhibition of forskolin-stimulated cyclic AMP production in CHO cells; type: cell-based; conditions: read-out: Emax, inhibition of forskolin-induced stimulation of cyclic AMP
ICR mice [2] = test: Tail flick antinociception; conditions: for ED50 TF (tail flick antinociception): mice, i.v., 95% confidence limits in parentheses
cannabinoid CB1 receptor [3] = biological target: T1, cannabinoid CB1 receptor (Rattus norvegicus, UniProt P20272); test: [3H]CP55,940 binding, cannabinoid CB1 receptor, rat cerebellar membranes; conditions: read-out: Ki (nM) CB1, 1 nM [3H]CP55,940, mean ± S.E.M.
ICR mice [4] = test: Rectal temperature; conditions: i.v., 95% confidence limits in parentheses
ICR mice [5] = test: Suppression of spontaneous activity; conditions: i.v.; for ED50 SA (suppression of spontaneous activity): 95% confidence limits in parentheses
[6] = biological target: mouse cannabinoid CB2 receptors (Mus musculus, UniProt P47936); test: [3H]CP55,940 binding, cannabinoid CB2 receptor, CB2-CHO cell membranes; conditions: for better affinity for cannabinoid CB2 receptors than for CB1: ratio of CB1 to CB2 affinity; for Ki: read-out: Ki (nM) CB2, CB2-CHO cell membranes, 1 nM [3H]CP55,940, mean ± S.E.M.
ICR mice [7] = test: Mouse in vivo screening test battery as a whole, agonist tests
ICR mice [8] = test: Locomotor trials associated with the feeding experiment; type: in vivo, mouse; conditions: 10 and 30 mg/kg doses, i.p., 30 min before 10-min test
C57/Bl6J mice = test: Δ9-tetrahydrocannabinol drug discrimination in mice; type: in vivo, mouse; conditions: mice trained to discriminate 5.6 mg/kg Δ9-tetrahydrocannabinol from vehicle, s.c.
cannabinoid CB1 receptor [9] = biological target: T1, cannabinoid CB1 receptor; test: Agonist-stimulated [35S]GTPγS binding in rat cerebellar membranes; type: biochemical
ICR mice [10] = test: Mouse feeding experiment; type: in vivo; conditions: mice food deprived for 24 hr, injected i.p. 30 min before 1 h session
ICR mice [11] = test: Antagonist tests in the mouse in vivo test battery
[12] = tested on: mouse isolated vas deferens; test: Mouse vas deferens procedure; conditions: for dextral shift of WIN 55,212-2 log concentration response curve: 95% confidence limits in parentheses; for mean change in twitch height: compound alone

T1 sequence (P20272 whole entry): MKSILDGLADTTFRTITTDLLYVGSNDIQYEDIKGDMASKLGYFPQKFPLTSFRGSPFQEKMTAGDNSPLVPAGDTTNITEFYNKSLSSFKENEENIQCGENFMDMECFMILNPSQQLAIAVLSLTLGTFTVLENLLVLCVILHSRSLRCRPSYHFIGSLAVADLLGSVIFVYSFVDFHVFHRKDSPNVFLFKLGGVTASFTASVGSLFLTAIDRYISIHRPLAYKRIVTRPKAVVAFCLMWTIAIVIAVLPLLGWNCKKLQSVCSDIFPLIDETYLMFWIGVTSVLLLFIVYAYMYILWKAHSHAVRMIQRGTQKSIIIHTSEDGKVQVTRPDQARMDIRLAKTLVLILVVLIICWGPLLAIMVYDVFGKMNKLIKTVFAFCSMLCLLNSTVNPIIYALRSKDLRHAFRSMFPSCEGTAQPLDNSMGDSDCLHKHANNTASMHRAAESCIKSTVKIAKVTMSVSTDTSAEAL
Chain of mouse cannabinoid CB2 receptors (P47936 whole entry): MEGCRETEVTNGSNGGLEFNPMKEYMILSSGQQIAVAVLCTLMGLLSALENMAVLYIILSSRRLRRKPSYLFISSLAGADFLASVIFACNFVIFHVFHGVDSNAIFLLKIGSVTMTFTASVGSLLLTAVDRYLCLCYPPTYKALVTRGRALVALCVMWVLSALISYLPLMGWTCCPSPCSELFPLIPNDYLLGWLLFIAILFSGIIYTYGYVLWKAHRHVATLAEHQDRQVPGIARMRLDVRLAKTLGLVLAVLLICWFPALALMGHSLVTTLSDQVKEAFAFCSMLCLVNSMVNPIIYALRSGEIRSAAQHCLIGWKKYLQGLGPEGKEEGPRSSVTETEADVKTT
Chain of human cannabinoid CB1 receptors (P21554 whole entry): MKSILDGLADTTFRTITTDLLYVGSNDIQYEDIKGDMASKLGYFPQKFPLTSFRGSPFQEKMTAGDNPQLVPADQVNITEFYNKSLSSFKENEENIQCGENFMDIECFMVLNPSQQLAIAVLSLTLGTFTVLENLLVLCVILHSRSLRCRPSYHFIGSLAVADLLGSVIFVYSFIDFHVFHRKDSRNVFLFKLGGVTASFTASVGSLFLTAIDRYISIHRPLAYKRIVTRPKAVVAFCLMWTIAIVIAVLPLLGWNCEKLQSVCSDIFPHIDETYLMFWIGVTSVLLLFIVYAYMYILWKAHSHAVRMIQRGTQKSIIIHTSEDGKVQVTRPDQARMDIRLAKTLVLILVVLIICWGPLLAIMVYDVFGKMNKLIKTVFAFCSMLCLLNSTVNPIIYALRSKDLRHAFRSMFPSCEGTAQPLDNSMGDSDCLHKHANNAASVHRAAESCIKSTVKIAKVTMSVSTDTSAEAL

## CCCCCCC(C)(C)c1ccc([C@@H]2C[C@H](O)CC[C@H]2CCCO)c(O)c1 [CP55,940, (−)-cis-3-[2-hydroxy-4(1,1-dimethyl-heptyl)phenyl]-trans-4-(3-hydroxy-propyl)cyclohexanol]
[1]
  Emax: 74.4%

## CCS(=O)(=O)NCCCC#CCc1cc(O)c2c(c1)OC(C)(C)[C@@H]1CC=C(C)C[C@@H]21 [O-1991]
ICR mice [2]
  ED50 TF (tail flick antinociception): 0.9 (0.6-1.4) mg/kg
Cannabinoid CB1 receptor [3]
  Ki: 30 ± 13 nM
ICR mice [4]
  ED50 RT (rectal temperature): 0.8 (0.4-1.6) mg/kg
ICR mice [5]
  ED50 SA (suppression of spontaneous activity): 2 (1-3) mg/kg
[6]
  better affinity for cannabinoid CB2 receptors than for CB1: 21 fold
  Ki: 1.4 ± 0.2 nM

## CCCCS(=O)(=O)NCCCC#CCc1cc(O)c2c(c1)OC(C)(C)C1CC=C(C)CC21 (centres unmarked) [O-1993]
ICR mice [2]
  ED50 TF (tail flick antinociception): 14 (7-27) mg/kg
Cannabinoid CB1 receptor [3]
  Ki: 70 ± 10 nM
ICR mice [4]
  ED50 RT (rectal temperature): 12 (9-15) mg/kg
ICR mice [5]
  ED50 SA (suppression of spontaneous activity): 8 (3-16) mg/kg
[6]
  Ki: 86 ± 7 nM
ICR mice [7]; across the three in vivo tests (SA, TF, RT)
  decrease of in vivo potencies as compared to O-1991: 4- to 14 fold

## CC1=CC[C@@H]2[C@@H](C1)c1c(O)cc(CC#CCCCNS(C)(=O)=O)cc1OC2(C)C [O-2050]
ICR mice [2]; 10 μg i.c.v., with dimethyl sulfoxide i.v.
  increase in antinociception as compared to vehicle: 2 fold
Cannabinoid CB1 receptor [3]
  Ki: 2.5 ± 0.4 nM
ICR mice [8]
  locomotor activity: significant locomotor stimulation
C57/Bl6J mice
  Δ9-tetrahydrocannabinol-like discriminative stimulus effects: produced discriminative stimulus effects that were similar to those of Δ^9-tetrahydrocannabinol
Cannabinoid CB1 receptor [9]; compound alone, rat cerebellar membranes
  maximum stimulation of [35S]GTPγS binding: 11 ± 3%
Cannabinoid CB1 receptor [9]; in presence of 1000 nM CP55,940
  stimulation by CP 55,940 that was not blocked: 11 ± 6%
ICR mice [10]
  food intake: significant and dose-dependent decreases in food intake
ICR mice [11]; 30 mg/kg injected 24 hr prior to 3 mg/kg Δ9-tetrahydrocannabinol, data not shown
  delayed antagonist effects: did not have delayed antagonist effects
ICR mice [11]; doses of up to 3 and 10 mg/kg i.v., vs 1 mg/kg WIN 55,212-2, data not shown
  antagonism of in vivo effects of WIN 55,212-2: did not antagonize
ICR mice [11]; doses up to 30 mg/kg i.v., vs 3 mg/kg Δ9-tetrahydrocannabinol i.v.
  antagonism of in vivo pharmacological effects of Δ9-tetrahydrocannabinol: did not antagonize
ICR mice [5]; 30 mg/kg (highest dose)
  SA: percent effect at the highest dose: 69% @ 30
[6]
  better affinity for cannabinoid CB2 receptors than for CB1: 12 fold
  Ki: 0.2 ± 0.1 nM
[12]; 1 nM O-2050
  dextral shift of WIN 55,212-2 log concentration response curve: 2.8 (1.7 - 4.4)
[12]; 10 nM O-2050
  dextral shift of WIN 55,212-2 log concentration response curve: 7.5 (4.1 - 13)
[12]; 31.62 nM O-2050
  dextral shift of WIN 55,212-2 log concentration response curve: 15.0 (9.9 - 21.9)
[12]; 100 nM O-2050
  dextral shift of WIN 55,212-2 log concentration response curve: 103.9 (60.0 - 180.7)
[12]; 30 min after 1 nM
  mean change in twitch height: 6.03±6.21%
[12]; 30 min after 10 nM
  mean change in twitch height: −0.45±5.9%
[12]; 30 min after 31.62 nM
  mean change in twitch height: 3.39±9.4%
[12]; 30 min after 100 nM
  mean change in twitch height: 3.8±8.1%
[12]; 30 min after 1000 nM
  mean change in twitch height: 6.19±16.4%
[12]; interaction with WIN 55,212-2
  Schild plot slope: 0.83±0.18
[12]; read-out: mean KB value, antagonism of WIN 55,212-2
  Kb: 1 ± 0.1 nM
ICR mice [7]; mice, i.v., up to 30 mg/kg
  activity in the battery of three in vivo tests: not active in any of the three in vivo tests

## CCS(=O)(=O)NCCCCC(C)(C)c1cc(O)c2c(c1)OC(C)(C)C1CC=C(C)CC21 (centres unmarked) [O-2113]
ICR mice [2]
  ED50 TF (tail flick antinociception): 0.3 (0.1-1) mg/kg
Cannabinoid CB1 receptor [3]
  Ki: 1.7 ± 0.3 nM
ICR mice [4]
  ED50 RT (rectal temperature): 1.4 (0.3-4.6) mg/kg
ICR mice [5]
  ED50 SA (suppression of spontaneous activity): 0.4 (0.1-1.8) mg/kg
[6]
  better affinity for cannabinoid CB2 receptors than for CB1: 21 fold
  Ki: 0.08 ± 0.02 nM
